US12552783B2, “Modulators of proteolysis and associated methods of use” (Arvinas Operations, Inc., priority 2018, dated 2026)

Target: KRas (Homo sapiens, UniProt P01116, G12C)
Experiment: KRas degradation in NCI-H2030 cells by Western blot, normalized to GAPDH (data of Table 14)
Format: cell-based
Design: host or cells: NCI-H2030
Details: for Dmax: NCI-H2030
Procedure: Cell Lines, Antibodies, and Reagents. NCI-H2030 (CRL-5914) and SW1573 (CRL-2170) cells were purchased from ATCC. Both cell lines are homozygous for the G12C mutation in KRas. NCI-H2030 cells were cultured in RPMI-1640 medium containing 1% penicillin-streptomycin and 10% fetal bovine serum (FBS). SW1573 cells were cultured in DMEM containing 1% penicillin-streptomycin and 10% FBS. The KRas detection antibody (Cat. No. LS-C175665) was purchased from LifeSpan Biosciences and was used at a dilution of 1:2000. GAPDH was detected using an antibody purchased from Cell Signaling Technology (Cat. No. 5174) and was diluted 1:3000. Secondary anti-mouse and anti-rabbit detection antibodies were purchased from Cell Signaling Technology (Cat. Nos. 7076 and 7074, respectively).
Compound Treatment and Western Blotting of the Data of Table 14. Either NCI-H2030 or SW1573 cells were plated in 12-well plates and allowed to adhere overnight at 37° C. in an incubator containing 5% CO2. The following day, the medium was replaced with the appropriate medium lacking FBS to induce starvation. Cells were returned to the incubator for an additional 24 hours following media exchange. […] Cells were treated with VHL-based compounds for 24 hours and all other compounds for 72 hours. Following treatment, cells were lysed in RIPA buffer (Thermo Fisher Cat. No. 89900) containing phosphatase (Thermo Fisher Cat. No. 1861277) and protease (Thermo Fisher Cat. No. 78429) inhibitor cocktails. Lysates were cleared at 13,000 rpm for 15 minutes and supernatants were assayed for total protein concentration using the Pierce BCA assay system (Thermo Fisher Cat. No. 23225). For each sample, 10 μg total protein was resolved on a 12% Bis-Tris gel and then transferred to a nitrocellulose membrane. After blocking in 3% BSA in TBST (Tris-buffered Saline with 0.1% Tween-20) for 1 hour at room temperature, membranes were probed with the primary antibody (LS Bio Cat. No. LS-C175665) overnight at 4° C. After incubation with the secondary antibody, the following day membranes were visualized using the SuperSignal™ West Femto substrate (Thermo Fisher Cat. No. 34095). The KRas signal in each lane was normalized to GAPDH and percent degradation was either estimated as less than 25% by visual inspection (C in Table 13) or quantitated relative to the DMSO control lane using BIO-RAD Image Lab 5.2.1, and all data was plotted using GraphPad PRISM 6.07.
DC50 is the half-maximal degradation concentration—i.e., the concentration at which 50% degradation is observed. DMax is the maximum degradation efficacy is achieved—i.e., the maximal degradation observed) degradation data.

Compound	Percent Degradation at Indicated Concentration (μM) (H2030, 3 μM)	Percent Degradation at Indicated Concentration (μM) (H2030, 0.3 μM)	Percent Degradation at Indicated Concentration (μM) (H2030, 1 μM)	Dmax [%]	Percent Degradation at Indicated Concentration (μM) (H2030 cells, 0.3 μM)	Percent Degradation at Indicated Concentration (μM) (H2030 cells, 1 μM)	Percent Degradation at Indicated Concentration (μM) (H2030 cells, 3 μM)
C=CC(=O)N1CCN(c2nc(NCCC(=O)N(C)CCOCCOCCOCC(=O)N[C@H](C(=O)N3C[C@H](O)C[C@H]3C(=O)N[C@@H](C)c3ccc(-c4scnc4C)cc3)C(C)(C)C)nc3c(F)c(-c4c(O)cccc4F)c(Cl)cc23)CC1 (atropisomer, axis not shown) [compound 209, (2S,4R)-1-((S)-18-((4-(4-acryloylpiperazin-1-yl)-6-chloro-8-fluoro-7-((S)-2-fluoro-6-hydroxyphenyl)quinazolin-2-yl)amino)-2-(tert-butyl)-15-methyl-4,16-dioxo-6,9,12-trioxa-3,15-diazaoctadecanoyl)-4-hydroxy-N-((S)-1-(4-(4-methylthiazol-5-yl)phenyl)ethyl)pyrrolidine-2-carboxamide]	C (Percent Degradation: C ≤ 35)						
C=CC(=O)N1CCN(c2nc(NCCC(=O)N(C)CCOCCOCCOCC(=O)N[C@H](C(=O)N3C[C@H](O)C[C@H]3C(=O)N[C@@H](C)c3ccc(-c4scnc4C)cc3)C(C)(C)C)nc3c(F)c(-c4c(O)cccc4F)c(Cl)cc23)CC1 (atropisomer, axis not shown) [compound 210, (2S,4R)-1-((S)-18-((4-(4-acryloylpiperazin-1-yl)-6-chloro-8-fluoro-7-((R)-2-fluoro-6-hydroxyphenyl)quinazolin-2-yl)amino)-2-(tert-butyl)-15-methyl-4,16-dioxo-6,9,12-trioxa-3,15-diazaoctadecanoyl)-4-hydroxy-N-((S)-1-(4-(4-methylthiazol-5-yl)phenyl)ethyl)pyrrolidine-2-carboxamide]	C (Percent Degradation: C ≤ 35)	C (Percent Degradation: C ≤ 35)	C (Percent Degradation: C ≤ 35)	≤ 35			
C=CC(=O)N1CCN(c2nc(NCCC(=O)N(C)CCOCCOCCOCCOCC(=O)N[C@H](C(=O)N3C[C@H](O)C[C@H]3C(=O)N[C@@H](C)c3ccc(-c4scnc4C)cc3)C(C)(C)C)nc3c(F)c(-c4c(O)cccc4F)c(Cl)cc23)CC1 (atropisomer, axis not shown) [compound 211, (2S,4R)-1-((S)-21-(((S)-4-(4-acryloylpiperazin-1-yl)-6-chloro-8-fluoro-7-(2-fluoro-6-hydroxyphenyl)quinazolin-2-yl)amino)-2-(tert-butyl)-18-methyl-4,19-dioxo-6,9,12,15-tetraoxa-3,18-diazahenicosanoyl)-4-hydroxy-N-((S)-1-(4-(4-methylthiazol-5-yl)phenyl)ethyl)pyrrolidine-2-carboxamide]	C (Percent Degradation: C ≤ 35)						
C=CC(=O)N1CCN(c2nc(NCCC(=O)N(C)CCOCCOCCOCCOCC(=O)N[C@H](C(=O)N3C[C@H](O)C[C@H]3C(=O)N[C@@H](C)c3ccc(-c4scnc4C)cc3)C(C)(C)C)nc3c(F)c(-c4c(O)cccc4F)c(Cl)cc23)CC1 (atropisomer, axis not shown) [compound 212, (2S,4R)-1-((S)-21-(((R)-4-(4-acryloylpiperazin-1-yl)-6-chloro-8-fluoro-7-(2-fluoro-6-hydroxyphenyl)quinazolin-2-yl)amino)-2-(tert-butyl)-18-methyl-4,19-dioxo-6,9,12,15-tetraoxa-3,18-diazahenicosanoyl)-4-hydroxy-N-((S)-1-(4-(4-methylthiazol-5-yl)phenyl)ethyl)pyrrolidine-2-carboxamide]	C (Percent Degradation: C ≤ 35)	C (Percent Degradation: C ≤ 35)	C (Percent Degradation: C ≤ 35)	≤ 35			
C=CC(=O)N1CCN(c2nc(NCCC(=O)N(C)CCOCCOCCOCCOCCOCC(=O)N[C@H](C(=O)N3C[C@H](O)C[C@H]3C(=O)N[C@@H](C)c3ccc(-c4scnc4C)cc3)C(C)(C)C)nc3c(F)c(-c4c(O)cccc4F)c(Cl)cc23)CC1 (atropisomer, axis not shown) [compound 213, (2S,4R)-1-((S)-24-(((S)-4-(4-acryloylpiperazin-1-yl)-6-chloro-8-fluoro-7-(2-fluoro-6-hydroxyphenyl)quinazolin-2-yl)amino)-2-(tert-butyl)-21-methyl-4,22-dioxo-6,9,12,15,18-pentaoxa-3,21-diazatetracosanoyl)-4-hydroxy-N-((S)-1-(4-(4-methylthiazol-5-yl)phenyl)ethyl)pyrrolidine-2-carboxamide]	C (Percent Degradation: C ≤ 35)						
Cc1ncsc1-c1ccc([C@H](C)NC(=O)[C@@H]2C[C@@H](O)CN2C(=O)[C@@H](NC(=O)COCCOCCN(C)C(=O)CCNc2nc(N3CCN(C(N)=O)CC3)c3cc(Cl)c(-c4c(O)cccc4F)c(F)c3n2)C(C)(C)C)cc1 (atropisomer, axis not shown) [compound 227, 4-((S)-6-chloro-8-fluoro-7-(2-fluoro-6-hydroxyphenyl)-2-(((S)-14-((2S,4R)-4-hydroxy-2-(((S)-1-(4-(4-methylthiazol-5-yl)phenyl)ethyl)carbamoyl)pyrrolidine-1-carbonyl)-4,15,15-trimethyl-3,12-dioxo-7,10-dioxa-4,13-diazahexadecyl)amino)quinazolin-4-yl)piperazine-1-carboxamide]	C (Percent Degradation: C ≤ 35)	C (Percent Degradation: C ≤ 35)	C (Percent Degradation: C ≤ 35)	≤ 35			
Cc1ncsc1-c1ccc([C@H](C)NC(=O)[C@@H]2C[C@@H](O)CN2C(=O)[C@@H](NC(=O)COCCN(C)C(=O)CCNc2nc(N3CCN(C(=O)C(O)O)CC3)c3cc(Cl)c(-c4c(O)cccc4F)c(F)c3n2)C(C)(C)C)cc1 (atropisomer, axis not shown) [compound 234, (2S,4R)-1-((S)-2-(2-(2-(3-(((S)-6-chloro-4-(4-(2,2-dihydroxyacetyl)piperazin-1-yl)-8-fluoro-7-(2-fluoro-6-hydroxyphenyl)quinazolin-2-yl)amino)-N-methylpropanamido)ethoxy)acetamido)-3,3-dimethylbutanoyl)-4-hydroxy-N-((S)-1-(4-(4-methylthiazol-5-yl)phenyl)ethyl)pyrrolidine-2-carboxamide]	C (Percent Degradation: C ≤ 35)	C (Percent Degradation: C ≤ 35)	C (Percent Degradation: C ≤ 35)	≤ 35			
Cc1ncsc1-c1ccc([C@H](C)NC(=O)[C@@H]2C[C@@H](O)CN2C(=O)[C@@H](NC(=O)COCCN(C)C(=O)CCNc2nc(N3CCN(C(=O)C(O)O)CC3)c3cc(Cl)c(-c4c(O)cccc4F)c(F)c3n2)C(C)(C)C)cc1 (atropisomer, axis not shown) [compound 235, (2S,4R)-1-((S)-2-(2-(2-(3-(((R)-6-chloro-4-(4-(2,2-dihydroxyacetyl)piperazin-1-yl)-8-fluoro-7-(2-fluoro-6-hydroxyphenyl)quinazolin-2-yl)amino)-N-methylpropanamido)ethoxy)acetamido)-3,3-dimethylbutanoyl)-4-hydroxy-N-((S)-1-(4-(4-methylthiazol-5-yl)phenyl)ethyl)pyrrolidine-2-carboxamide]					C (Percent Degradation: C ≤ 35)	C (Percent Degradation: C ≤ 35)	C (Percent Degradation: C ≤ 35)
